{"source": "patent US4127526A", "about": "“Novel tetradecapeptides, intermediates therefor, and compositions and methods employing said tetradecapeptides” (priority 1977, dated 1978)", "origin": "cited, not measured here", "key": {"[1]": {"details": "injected directly into the brain of the rat"}, "[2]": {"test_system": "brain opiate receptor sites"}, "[3]": {"test_system": "opiate activity"}}, "data": [{"substance": "H-Tyr-Gly-Gly-Phe-Met-OH [methionine enkephalin]", "values": [{"measurement": "analgesic activity", "setting": "[1]", "result": "weak analgesic agent of short duration"}, {"measurement": "binding to partially purified brain opiate receptor sites", "setting": "[2]", "result": "binds stereo-specifically"}, {"measurement": "activity in bioassays for opiate activity", "setting": "[3]", "result": "very active"}]}]}
